These results are taken from the PolyMetriX glass transition set.

In turn, `*/C(C#N)=C(\C#N)n1c(=O)c2cc3c(=O)n(*)c(=O)c3cc2c1=O` (repeat unit) came in with a glass transition temperature of 210.00 °C.
Regarding `*/C=C/c1c(OC(=O)c2ccc(C(=O)Oc3cccc4ccc(*)nc34)cc2)ccc2ccccc12` (repeat unit), the glass transition temperature was determined as 175.00 °C.
In the case of `*C(=O)Nc1ccc(Oc2cccc(Oc3ccc(NC(=O)c4ccc5c(c4)C(=O)N(c4cccc(Oc6cccc(Oc7cccc(N8C(=O)c9ccc(*)cc9C8=O)c7)c6C#N)c4)C5=O)cc3)c2)cc1` (repeat unit), the glass transition temperature came out at 207.00 °C.
With `*C(=O)Nc1cccc(Oc2cccc(Oc3cccc(Oc4cccc(Oc5cccc(NC(=O)c6ccc7c(c6)C(=O)N(c6cccc(Oc8cccc(Oc9cccc(N%10C(=O)c%11ccc(*)cc%11C%10=O)c9)c8C#N)c6)C7=O)c5)c4C#N)c3)c2C#N)c1` (repeat unit) the figure was 193.00 °C; with `*C(=O)c1ccc2c(c1)C(=O)N(c1cc(C(c3ccc(O)c(N4C(=O)c5ccc(*)cc5C4=O)c3)(C(F)(F)F)C(F)(F)F)ccc1O)C2=O` (repeat unit), 315.00 °C; with `*C(=O)c1ccc2c(c1)C(=O)N(c1ccc(-c3c(-c4ccc(-c5ccccc5)cc4)cc(-c4ccc(OCCCCCCCCCCOc5ccc(-c6cc(-c7ccc(-c8ccccc8)cc7)c(-c7ccc(N8C(=O)c9ccc(*)cc9C8=O)cc7)c(-c7ccc(-c8ccccc8)cc7)c6)cc5)cc4)cc3-c3ccc(-c4ccccc4)cc3)cc1)C2=O` (repeat unit), 103.50 °C.
The result for `*C(=O)c1ccc2c(c1)C(=O)N(c1ccc(-c3c(-c4ccc(-c5ccccc5)cc4)cc(-c4ccc(OCCCCCCOc5ccc(-c6cc(-c7ccc(-c8ccccc8)cc7)c(-c7ccc(N8C(=O)c9ccc(*)cc9C8=O)cc7)c(-c7ccc(-c8ccccc8)cc7)c6)cc5)cc4)cc3-c3ccc(-c4ccccc4)cc3)cc1)C2=O` (repeat unit) reads 111.50 °C; that for `*C(=O)c1ccc2c(c1)C(=O)N(c1ccc(-c3ccc(N4C(=O)c5ccc(*)cc5C4=O)c(OCCCCCCOc4ccc(/C=C/c5ccc(F)cc5)cc4)c3)cc1OCCCCCCOc1ccc(/C=C/c3ccc(F)cc3)cc1)C2=O` (repeat unit), 128.00 °C.
In the case of `*CCOCCOCCN1C(=O)c2ccc(C(=O)Oc3ccc4cc(OC(=O)c5ccc6c(c5)C(=O)N(*)C6=O)ccc4c3)cc2C1=O` (repeat unit), the glass transition temperature turned out to be 105.00 °C.
In the case of `*OP(=O)(Oc1cccc2c(*)cccc12)OC1CCCCC1` (repeat unit), the glass transition temperature is 134.00 °C.
As to `*OP(=O)(Oc1ccccc1)Oc1cccc2c(*)cccc12` (repeat unit), the glass transition temperature stood at 138.00 °C.
`*Oc1cc(Oc2cccc(NC(=O)c3cc(Oc4ccc(C(=O)O)c(C(=O)Nc5cccc(*)c5)c4)ccc3C(=O)O)c2)ccc1C#N` (repeat unit) gave a glass transition temperature of 195.80 °C.
The molecule `*Oc1ccc2cc(OC(=O)c3cccc(Oc4ccc(Oc5cccc(C(*)=O)c5)cc4)c3)ccc2c1` (repeat unit) displayed a glass transition temperature of 125.00 °C.
With `*Oc1ccc2cc(Oc3ccc4c(=O)n5c6cc(-c7ccc8c(c7)nc7c9ccc(*)c%10cccc(c(=O)n87)c%109)ccc6nc5c5cccc3c45)ccc2c1` (repeat unit) the figure was 413.00 °C; with `*Oc1ccc2ccc(OC(=O)c3ccc(Oc4ccc(C(*)=O)cc4)cc3)cc2c1` (repeat unit), 142.00 °C; with `*Oc1cccc(*)c1` (repeat unit), 53.00 °C.
With `*Oc1cccc(C(F)(F)C(F)(F)C(F)(F)c2cccc(OC(=O)c3cccc(C(F)(F)C(F)(F)C(F)(F)c4cccc(C(*)=O)c4)c3)c2)c1` (repeat unit) the figure was 74.00 °C.
On to `*Oc1cccc(Oc2ccc(Oc3cccc(OC(=O)c4ccc(C(*)=O)cc4)c3)cc2)c1` (repeat unit), for which the glass transition temperature was found to be 103.00 °C.
The result for `*Oc1ccccc1C(=O)OC(=O)c1ccccc1OC(=O)c1ccc(C(*)=O)cc1` (repeat unit) reads 120.00 °C.
Molecule `*SC(*)(F)F` (repeat unit) had a glass transition temperature of -118.00 °C.
`*Sc1ccc(Cc2ccc(SC(*)=O)cc2)cc1` (repeat unit): the glass transition temperature was 117.00 °C.
On to `*c1cc(N2C(=O)c3ccc(Oc4cccc5c(Oc6ccc7c(c6)C(=O)N(*)C7=O)cccc45)cc3C2=O)cc(C(F)(F)F)c1` (repeat unit), for which the glass transition temperature came to 250.00 °C.
Take `*c1ccc(C(c2ccc(N3C(=O)c4ccc(Oc5ccc6ccc(Oc7ccc8c(c7)C(=O)N(*)C8=O)cc6c5)cc4C3=O)cc2)(C(F)(F)F)C(F)(F)F)cc1` (repeat unit): the glass transition temperature came out at 256.00 °C.
With `*c1ccc(C(c2ccc(N3C(=O)c4ccc(Oc5cccc6c(Oc7ccc8c(c7)C(=O)N(*)C8=O)cccc56)cc4C3=O)cc2)(C(F)(F)F)C(F)(F)F)cc1` (repeat unit) the figure was 276.00 °C; with `*c1ccc(Oc2cc3ccccc3cc2Oc2ccc(N3C(=O)c4ccc(Oc5ccccc5Oc5ccc6c(c5)C(=O)N(*)C6=O)cc4C3=O)cc2)cc1` (repeat unit), 216.00 °C; with `*c1ccc(Oc2ccc(-c3c(-c4ccccc4)nc4ccc(Oc5ccc6nc(-c7ccccc7)c(*)c(-c7ccccc7)c6c5)cc4c3-c3ccccc3)cc2)cc1` (repeat unit), 252.50 °C.
`*c1ccc(Oc2ccc(-c3ccc(Oc4ccc(N5C(=O)c6ccc(Oc7ccc8cc(Oc9ccc%10c(c9)C(=O)N(*)C%10=O)ccc8c7)cc6C5=O)cc4)cc3)cc2)cc1` (repeat unit) had a glass transition temperature of 230.00 °C.
With `*c1ccc(Oc2ccc(-c3ccc(Oc4ccc(N5C(=O)c6ccc(Oc7cccc(Oc8ccc9c(c8)C(=O)N(*)C9=O)c7)cc6C5=O)cc4)cc3)cc2)cc1` (repeat unit), the glass transition temperature amounted to 200.00 °C.
Turning to `*c1ccc(Oc2ccc(-c3ccc(Oc4ccc(N5C(=O)c6ccc(Oc7ccccc7Oc7ccc8c(c7)C(=O)N(*)C8=O)cc6C5=O)cc4C(F)(F)F)cc3)cc2)c(C(F)(F)F)c1` (repeat unit), the glass transition temperature turned out to be 208.00 °C.
Take `*c1ccc(Oc2ccc(-c3ccc(Oc4ccc(N5C(=O)c6cccc(Oc7cc(C(C)(C)C)c(Oc8cccc9c8C(=O)N(*)C9=O)cc7C(C)(C)C)c6C5=O)cc4)cc3)cc2)cc1` (repeat unit): the glass transition temperature worked out at 275.00 °C.
As for `*c1ccc(Oc2ccc(N3C(=O)c4ccc(Oc5ccc6ccc(Oc7ccc8c(c7)C(=O)N(*)C8=O)cc6c5)cc4C3=O)cc2)cc1` (repeat unit), the glass transition temperature came out at 245.00 °C.
Molecule `*c1ccc(Oc2ccc(N3C(=O)c4ccc(Oc5cccc6c(Oc7ccc8c(c7)C(=O)N(*)C8=O)cccc56)cc4C3=O)cc2)cc1` (repeat unit) gave a glass transition temperature of 240.00 °C.
As to `*c1ccc(Oc2ccc(N3C(=O)c4ccc(Oc5cccc6c5C(=O)N(*)C6=O)cc4C3=O)cc2)cc1` (repeat unit), the glass transition temperature is 285.00 °C.
Regarding `*c1ccc(Oc2ccc(N3C(=O)c4cccc(Oc5cccc(Oc6cccc7c6C(=O)N(*)C7=O)c5)c4C3=O)cc2)cc1` (repeat unit), the glass transition temperature is 226.00 °C.
As for `*c1ccc(Oc2ccc(Oc3ccc(N4C(=O)c5ccc(Oc6ccc7ccc(Oc8ccc9c(c8)C(=O)N(*)C9=O)cc7c6)cc5C4=O)cc3)cc2)cc1` (repeat unit), the glass transition temperature came out at 228.00 °C.
`*c1ccc(Oc2ccc(Oc3ccc(N4C(=O)c5ccc(Oc6cccc7c6C(=O)N(*)C7=O)cc5C4=O)cc3)cc2)cc1` (repeat unit) had a glass transition temperature of 249.00 °C.
With `*c1ccc(Oc2ccc(Oc3ccc(N4C(=O)c5ccc(Oc6ccccc6Oc6ccc7c(c6)C(=O)N(*)C7=O)cc5C4=O)cc3)cc2)cc1` (repeat unit), the glass transition temperature turned out to be 202.00 °C.
On to `*c1ccc(Oc2ccc(S(=O)(=O)c3ccc(Oc4ccc(N5C(=O)c6ccc(Oc7cccc(Oc8ccc9c(c8)C(=O)N(*)C9=O)c7)cc6C5=O)cc4)cc3)cc2)cc1` (repeat unit), for which the glass transition temperature was determined as 201.00 °C.
Take `*c1ccc(Oc2ccc(S(=O)(=O)c3ccc(Oc4ccc(N5C(=O)c6ccc(Oc7cccc8c(Oc9ccc%10c(c9)C(=O)N(*)C%10=O)cccc78)cc6C5=O)cc4)cc3)cc2)cc1` (repeat unit): the glass transition temperature stood at 201.00 °C.
Turning to `*c1ccc(Oc2cccc(N3C(=O)c4ccc(Oc5ccc6cc(Oc7ccc8c(c7)C(=O)N(*)C8=O)ccc6c5)cc4C3=O)c2)cc1` (repeat unit), the glass transition temperature worked out at 225.00 °C.
With `*c1ccc(Oc2cccc(N3C(=O)c4ccc(Oc5ccc6ccc(Oc7ccc8c(c7)C(=O)N(*)C8=O)cc6c5)cc4C3=O)c2)cc1` (repeat unit) the figure was 221.00 °C.
Consider `*c1ccc(Oc2cccc(Oc3ccc(N4C(=O)c5cccc(Oc6cccc(Oc7cccc8c7C(=O)N(*)C8=O)c6)c5C4=O)cc3)c2)cc1` (repeat unit), for which the glass transition temperature amounted to 193.00 °C.
As to `*c1ccc(Oc2ccccc2Oc2ccc(N3C(=O)c4ccc(Oc5ccccc5Oc5ccc6c(c5)C(=O)N(*)C6=O)cc4C3=O)cc2C(F)(F)F)c(C(F)(F)F)c1` (repeat unit), the glass transition temperature amounted to 185.00 °C.
`*c1ccc(Sc2cc3c(cc2Sc2ccc(N4C(=O)C5C6C=CC(C7C(=O)N(*)C(=O)C67)C5C4=O)cc2)C(=O)N(c2ccc(CC)cc2)C3=O)cc1` (repeat unit) displayed a glass transition temperature of 320.00 °C.
The result for `*c1cccc(-c2nc3cc(Oc4ccc5nc(-c6ccccc6)c(*)nc5c4)ccc3nc2-c2ccccc2)c1` (repeat unit) reads 270.00 °C.
As for `*c1cccc(N2C(=O)c3ccc(Oc4ccc5cc(Oc6ccc7c(c6)C(=O)N(*)C7=O)ccc5c4)cc3C2=O)c1` (repeat unit), the glass transition temperature was found to be 230.00 °C.
Turning to `*c1cccc(Oc2ccc(C#N)c(Oc3cccc(N4C(=O)c5ccc(Oc6ccc7c(c6)C(=O)N(*)C7=O)cc5C4=O)c3)c2)c1` (repeat unit), the glass transition temperature is 196.00 °C.
With `*c1cccc(Oc2cccc(Oc3cccc(N4C(=O)c5ccc(Oc6ccc7c(c6)C(=O)N(*)C7=O)cc5C4=O)c3)c2C#N)c1` (repeat unit), the glass transition temperature was 219.00 °C.
Regarding `*c1cccc(Oc2cccc(Oc3cccc(Oc4cccc(Oc5cccc(N6C(=O)c7ccc(Oc8ccc9c(c8)C(=O)N(*)C9=O)cc7C6=O)c5)c4C#N)c3)c2C#N)c1` (repeat unit), the glass transition temperature worked out at 176.00 °C.
